According to patent US20080145313A1, “Compositions and Methods for the Treatment and Prevention of Neoplastic Disorders” (Genesis Research & Development Corporation Limited, priority 2006, published 2008):

Test system: target transcript mRNA in A549 cells
Experiment: Level of mRNA of target transcript in A549 cells by quantitative RT-PCR (Tables 12 and 13)
Type: cell-based, human
Settings: 24 h post-transfection; for mRNA knockdown of energy and metabolism gene target transcript, 0.1 nM: 0.1 nM siRNA; for mRNA knockdown of energy and metabolism gene target transcript, 1 nM: 1 nM siRNA; for mRNA knockdown of energy and metabolism gene target transcript, 10 nM: 10 nM siRNA
Protocol: A549 cells were transfected as described before with 0.1, 1.0 and 10 nM siRNA as listed in Tables 10 and 11 and the relative mRNA levels quantified 24 h post-transfection. RNA was purified from cells using Trizol® extraction as per the manufacturer's protocol (Invitrogen). cDNA was prepared by digesting approximately 200 ng purified RNA with DNAse I (Invitrogen) for 15 minutes at room temperature, followed by 15 minutes at 65° C. in the presence of 25 mM EDTA. 30 ng random primers were added and incubated for 10 minutes at 65° C., 1 minute on ice; Superscript® III polymerase (Invitrogen) was added in presence of 5 nM DTT (Invitrogen) and 1 mM deoxyribonucleotides (Invitrogen), and the reaction incubated at 25° C. for 5 minutes, followed by an hour at 50° C. cDNA was diluted 1:3 in 10 mM Tris pH 7.0, and quantitative RT-PCR carried out on an ABI Prism 7900HT (Applied Biosciences, Inc., Foster City, Calif.) using FastStart TaqMan SYBRGreen (Roche, Basel, Switzerland) or Platinum SYBR Green (Invitrogen) and 360 nM of the primers specific for gene targets and housekeeping genes HPRT and Lamin. Reduction in target mRNA levels following siRNA transfection are given in Tables 12 and 13, together with the gene specific primer sequences. Primer sequences used for the housekeeping genes HPRT and Lamin are given in SEQ ID NO: 4885-4888.

3558 (GCTACGGATGTTGGGATCATTATTA; chemistry not given here) [compound 3558]
mRNA knockdown of energy and metabolism gene target transcript, 0.1 nM: − (<50% mRNA knockdown)
mRNA knockdown of energy and metabolism gene target transcript, 1 nM: ++ (70-90% mRNA knockdown)

3551 (AAGGCAACTACCGCGAGCTGCGCTGGTT; chemistry not given here) [compound 3551]
mRNA knockdown of energy and metabolism gene target transcript, 0.1 nM: ++ (70-90% mRNA knockdown)
mRNA knockdown of energy and metabolism gene target transcript, 1 nM: − (<50% mRNA knockdown)

3544 (CTACCGCGAGCTGCGCTGGTT; chemistry not given here) [compound 3544]
mRNA knockdown of energy and metabolism gene target transcript, 0.1 nM: ++ (70-90% mRNA knockdown)
mRNA knockdown of energy and metabolism gene target transcript, 1 nM: ++ (70-90% mRNA knockdown)

3574 (GCGGTTTTTCTCCAAGTACTC; chemistry not given here) [compound 3574]
mRNA knockdown of energy and metabolism gene target transcript, 0.1 nM: ++ (70-90% mRNA knockdown)
mRNA knockdown of energy and metabolism gene target transcript, 1 nM: +++ (>90% mRNA knockdown)

1687 (CAACAGGATCTTCGGCCCCATCTG; chemistry not given here) [compound 1687]
mRNA knockdown of energy and metabolism gene target transcript, 0.1 nM: − (<50% mRNA knockdown)
mRNA knockdown of energy and metabolism gene target transcript, 1 nM: − (<50% mRNA knockdown)

3585 (AACAGAGGAGCAAGATACAGGC; chemistry not given here) [compound 3585]
mRNA knockdown of energy and metabolism gene target transcript, 0.1 nM: ++ (70-90% mRNA knockdown)
mRNA knockdown of energy and metabolism gene target transcript, 1 nM: ++ (70-90% mRNA knockdown)

3596 (AACAGGAAGATCCTGCTCATCAG; chemistry not given here) [compound 3596]
mRNA knockdown of energy and metabolism gene target transcript, 0.1 nM: + (50-70% mRNA knockdown)
mRNA knockdown of energy and metabolism gene target transcript, 1 nM: ++ (70-90% mRNA knockdown)

3552 (GAAGGCAACTACCGCGAGCTGCGCTGGTT; chemistry not given here) [compound 3552]
mRNA knockdown of energy and metabolism gene target transcript, 0.1 nM: + (50-70% mRNA knockdown)
mRNA knockdown of energy and metabolism gene target transcript, 1 nM: ++ (70-90% mRNA knockdown)

1692 (TTTGCCAACAGGATCTTCGGCCCCATCTG; chemistry not given here) [compound 1692]
mRNA knockdown of energy and metabolism gene target transcript, 0.1 nM: − (<50% mRNA knockdown)
mRNA knockdown of energy and metabolism gene target transcript, 1 nM: − (<50% mRNA knockdown)

3561 (GCGGCTACGGATGTTGGGATCATTATTA; chemistry not given here) [compound 3561]
mRNA knockdown of energy and metabolism gene target transcript, 0.1 nM: + (50-70% mRNA knockdown)
mRNA knockdown of energy and metabolism gene target transcript, 1 nM: ++ (70-90% mRNA knockdown)

3555 (ACGGATGTTGGGATCATTATTA; chemistry not given here) [compound 3555]
mRNA knockdown of energy and metabolism gene target transcript, 0.1 nM: ++ (70-90% mRNA knockdown)
mRNA knockdown of energy and metabolism gene target transcript, 1 nM: ++ (70-90% mRNA knockdown)

1694 (CGTGAAGCTCCCTGACGCCTA; chemistry not given here) [compound 1694]
mRNA knockdown of energy and metabolism gene target transcript, 0.1 nM: − (<50% mRNA knockdown)
mRNA knockdown of energy and metabolism gene target transcript, 1 nM: − (<50% mRNA knockdown)

3572 (GGTCACCAGCAAGAACGGTGGGATTTACT; chemistry not given here) [compound 3572]
mRNA knockdown of energy and metabolism gene target transcript, 0.1 nM: + (50-70% mRNA knockdown)
mRNA knockdown of energy and metabolism gene target transcript, 1 nM: ++ (70-90% mRNA knockdown)

3586 (AAACAGAGGAGCAAGATACAGGC; chemistry not given here) [compound 3586]
mRNA knockdown of energy and metabolism gene target transcript, 0.1 nM: ++ (70-90% mRNA knockdown)
mRNA knockdown of energy and metabolism gene target transcript, 1 nM: +++ (>90% mRNA knockdown)

3565 (AGCAAGAACGGTGGGATTTACT; chemistry not given here) [compound 3565]
mRNA knockdown of energy and metabolism gene target transcript, 0.1 nM: ++ (70-90% mRNA knockdown)
mRNA knockdown of energy and metabolism gene target transcript, 1 nM: +++ (>90% mRNA knockdown)

3548 (GCAACTACCGCGAGCTGCGCTGGTT; chemistry not given here) [compound 3548]
mRNA knockdown of energy and metabolism gene target transcript, 0.1 nM: ++ (70-90% mRNA knockdown)
mRNA knockdown of energy and metabolism gene target transcript, 1 nM: ++ (70-90% mRNA knockdown)
mRNA knockdown of energy and metabolism gene target transcript, 10 nM: +++ (>90% mRNA knockdown)

3543 (TGGAGCCAAGGGTAGGAGCCCTACACTAGG; chemistry not given here) [compound 3543]
mRNA knockdown of energy and metabolism gene target transcript, 0.1 nM: ++ (70-90% mRNA knockdown)
mRNA knockdown of energy and metabolism gene target transcript, 1 nM: ++ (70-90% mRNA knockdown)

3545 (ACTACCGCGAGCTGCGCTGGTT; chemistry not given here) [compound 3545]
mRNA knockdown of energy and metabolism gene target transcript, 0.1 nM: ++ (70-90% mRNA knockdown)
mRNA knockdown of energy and metabolism gene target transcript, 1 nM: ++ (70-90% mRNA knockdown)
mRNA knockdown of energy and metabolism gene target transcript, 10 nM: +++ (>90% mRNA knockdown)

1688 (CCAACAGGATCTTCGGCCCCATCTG; chemistry not given here) [compound 1688]
mRNA knockdown of energy and metabolism gene target transcript, 0.1 nM: + (50-70% mRNA knockdown)
mRNA knockdown of energy and metabolism gene target transcript, 1 nM: ++ (70-90% mRNA knockdown)

1699 (AAGAACGTGAAGCTCCCTGACGCCTA; chemistry not given here) [compound 1699]
mRNA knockdown of energy and metabolism gene target transcript, 0.1 nM: − (<50% mRNA knockdown)
mRNA knockdown of energy and metabolism gene target transcript, 1 nM: ++ (70-90% mRNA knockdown)

3576 (AAGCGGTTTTTCTCCAAGTACTC; chemistry not given here) [compound 3576]
mRNA knockdown of energy and metabolism gene target transcript, 0.1 nM: +++ (>90% mRNA knockdown)
mRNA knockdown of energy and metabolism gene target transcript, 1 nM: +++ (>90% mRNA knockdown)

3556 (TACGGATGTTGGGATCATTATTA; chemistry not given here) [compound 3556]
mRNA knockdown of energy and metabolism gene target transcript, 0.1 nM: ++ (70-90% mRNA knockdown)
mRNA knockdown of energy and metabolism gene target transcript, 1 nM: ++ (70-90% mRNA knockdown)

3595 (ACAGGAAGATCCTGCTCATCAG; chemistry not given here) [compound 3595]
mRNA knockdown of energy and metabolism gene target transcript, 0.1 nM: + (50-70% mRNA knockdown)
mRNA knockdown of energy and metabolism gene target transcript, 1 nM: ++ (70-90% mRNA knockdown)

3577 (GAAGCGGTTTTTCTCCAAGTACTC; chemistry not given here) [compound 3577]
mRNA knockdown of energy and metabolism gene target transcript, 0.1 nM: ++ (70-90% mRNA knockdown)
mRNA knockdown of energy and metabolism gene target transcript, 1 nM: +++ (>90% mRNA knockdown)

1695 (ACGTGAAGCTCCCTGACGCCTA; chemistry not given here) [compound 1695]
mRNA knockdown of energy and metabolism gene target transcript, 0.1 nM: ++ (70-90% mRNA knockdown)
mRNA knockdown of energy and metabolism gene target transcript, 1 nM: ++ (70-90% mRNA knockdown)
